Source: patent US8343988B2, “Inhibitors of histone deacetylase” (Janssen Pharmaceutica, N.V, priority 2002, dated 2013)
In brackets after ≈: the same amount, converted by molar mass. Like-named read-outs stand apart in the source and are kept apart here.

What was measured:
[1] = not given; remark: listed apart in the source
[2] = tested on: A2780 ovarian carcinoma cells; assay: Antiproliferative activity on A2780 cells (MTT); type: cell-based; conditions: Homo sapiens, 96 h, four days of incubation, read-out: Cellular activity pIC50 (converted)
Experimental: Cellular activity of the compounds of formula (I) was determined on A2780 tumour cells using a […] assay for cell toxicity or survival (Mosmann Tim, Journal of Immunological Methods 65: 55-63, 1983)(see example C.2).
All compounds tested were dissolved in DMSO and further dilutions were made in culture medium. Final DMSO concentrations never exceeded 0.1% (v/v) in cell proliferation assays. Controls contained A2780 cells and DMSO without compound and blanks contained DMSO but no cells. MTT was dissolved at 5 mg/ml in PBS. A glycine buffer comprised of 0.1 M glycine and 0.1 M NaCl buffered to pH 10.5 with NaOH (1 N) was prepared (all reagents were from Merck).
The human A2780 ovarian carcinoma cells (a kind gift from Dr. T. C. Hamilton [Fox Chase Cancer Centre, Pennsylvania, USA]) were cultured in RPMI 1640 medium supplemented with 2 mM L-glutamine, 50 μg/ml gentamicin and 10% fetal calf serum. Cells were routinely kept as monolayer cultures at 37° C. in a humidified 5% CO2 atmosphere. Cells were passaged once a week using a trypsin/EDTA solution at a split ratio of 1:40. All media and supplements were obtained from Life Technologies. Cells were free of mycoplasma contamination as determined using the Gen-Probe Mycoplasma Tissue Culture kit (supplier: BioMérieux).
Cells were seeded in NUNC™ 96-well culture plates (Supplier: Life Technologies) and allowed to adhere to the plastic overnight. Densities used for plating were 1500 cells per well in a total volume of 200 μl medium. After cell adhesion to the plates, medium was changed and drugs and/or solvents were added to a final volume of 200 μl. Following four days of incubation, medium was replaced by 200 μl fresh medium and cell density and viability was assessed using an MTT-based assay. To each well, 25 μl MTT solution was added and the cells were further incubated for 2 hours at 37° C. The medium was then carefully aspirated and the blue MTT-formazan product was solubilized by addition of 25 μl glycine buffer followed by 100 μl of DMSO. […] Within an experiment, the results for each experimental condition are the mean of 3 replicate wells. For initial screening purposes, compounds were tested at a single fixed concentration of 10^−6 M. For active compounds, the experiments were repeated to establish full concentration-response curves. For each experiment, controls (containing no drug) and a blank incubation (containing no cells or drugs) were run in parallel. The blank value was subtracted from all control and sample values. For each sample, the mean value for cell growth (in absorbance units) was expressed as a percentage of the mean value for cell growth of the control. […] Herein the effects of test compounds are expressed as pIC50 (the negative log value of the IC50-value).

[3] = Kinetic solubility in aqueous media; type: physicochemical; conditions: aqueous buffer, kinetic from dmso stock; phosphate citrate buffer pH 7.4, turbidity by nephelometer; read-out: Solubility Score
Experimental: Kinetic solubility in aqueous media measures the ability of a compound to stay in aqueous solution upon dilution (see example C.3).
DMSO-stock solutions are diluted with a single aqueous buffer solvent in 3 consecutive steps. For every dilution turbidity is measured with a nephelometer.
In the first dilution step, 10 μl of a concentrated stock-solution of the active compound, solubilized in DMSO (5 mM), was added to 100 μl phosphate citrate buffer pH 7.4 and mixed. In the second dilution step, an aliquot (20 μl) of the first dilution step was further dispensed in 100 μl phosphate citrate buffer pH 7.4 and mixed. Finally, in the third dilution step, a sample (20 μl) of the second dilution step was further diluted in 100 μl phosphate citrate buffer pH 7.4 and mixed. All dilutions were performed in 96-well plates. Immediately after the last dilution step the turbidity of the three consecutive dilution steps were measured with a nephelometer. Dilution was done in triplicate for each compound to exclude occasional errors. Based on the turbidity measurements a ranking is performed into 3 classes. Compounds with high solubility obtained a score of 3 and for this compounds the first dilution is clear. Compounds with medium solubility obtained a score of 2. For these compounds the first dilution is unclear and the second dilution is clear. […] The solubility of 6 compounds was measured.

[4] = target: histone deacetylase (HeLa nuclear extracts); assay: In vitro assay for inhibition of histone deacetylase; type: biochemical; conditions: [3H]acetylated histone H4 peptide substrate, 30 min
Experimental: The in vitro assay for inhibition of histone deacetylase (see example C.1) measures the inhibition of HDAC enzymatic activity obtained with the compounds of formula (I).
HeLa nuclear extracts (supplier: Biomol) were incubated at 60 μg/ml with 2×10^−8 M of radiolabeled peptide substrate. As a substrate for measuring HDAC activity a synthetic peptide, i.e. the amino acids 14-21 of histone H4, was used. The substrate is biotinylated at the NH2-terminal part with a 6-aminohexanoic acid spacer, and is protected at the COOH-terminal part by an amide group and specifically [^3H]acetylated at lysine 16. The substrate, biotin-(6-aminohexanoic)Gly-Ala-([^3H]-acetyl-Lys-Arg-His-Arg-Lys-Val-NH2), was added in a buffer containing 25 mM Hepes, 1 M sucrose, 0.1 mg/ml BSA and 0.01% Triton X-100 at pH 7.4. After 30 min the deacetylation reaction was terminated by the addition of HCl and acetic acid. (final concentration 0.035 mM and 3.8 mM respectively). After stopping the reaction, the free ^3H-acetate was extracted with ethylacetate. After mixing and centrifugation, the radioactivity in an aliquot of the upper (organic) phase was counted in a β-counter.
For each experiment, controls (containing HeLa nuclear extract and DMSO without compound), a blank incubation (containing DMSO but no HeLa nuclear extract or compound) and samples (containing compound dissolved in DMSO and HeLa nuclear extract) were run in parallel. […] The control sample represented 100% of substrate deactylation. For each sample the radioactivity was expressed as a percentage of the mean value of the controls. […] Herein the effects of test compounds are expressed as pIC50 (the negative log value of the IC50-value).

Compound	IC50 [2]	Enzyme activity pIC50 [4]	other results
CCC(C)n1nc(C)n(-c2ccc(N3CCCN(c4ccc(C(=O)NO)cc4)CC3)cc2)c1=O (stereo not drawn) (hydrate or solvate) [Co. No. 1]	–	–	melting point: 182 to 184 °C
O=C(NO)c1cnc(N2CCN(Cc3ccc(-c4ccc(CN5CCOCC5)cc4)o3)CC2)nc1 (hydrate or solvate) [Co. No. 9]	–	–	melting point: 140 °C
COc1cc(N)c(Cl)cc1C(=O)NC1CCN(CCCOc2ccc(F)cc2)CC1OC (stereo not drawn) [Cisapride]	–	–	% metabolism ([1]; human, 15 min, 5 μM): 45%
CCC(C)n1nc(C)n(-c2ccc(N3CCCN(c4ccc(C(=O)NO)cc4)CC3)cc2)c1=O (stereo not drawn) [Co. No. 1]	15000 nM	5.121	solubility [3]: > 454 µM
O=C(NO)c1ccc(N2CCN(Cc3ccccc3)CC2)cc1 [Co. No. 2]	9120 nM	6.377	solubility [3]: > 454 µM; melting point: 196 °C
O=C(NO)c1cnc(N2CCN(C3CCN(S(=O)(=O)c4ccc5ccccc5c4)CC3)CC2)nc1 [Co. No. 3]	964 nM	7.28	solubility [3]: < 75.8 µM; melting point: 210 °C
O=C(NO)c1cnc(N2CCC(N3CCN(S(=O)(=O)c4ccc5ccccc5c4)CC3)CC2)nc1 [Co. No. 4]	658 nM	7.306	solubility [3]: > 454 µM; melting point: 230 °C
O=C(NO)c1cnc(N2CCN(Cc3ccc(-c4ccc(CO)cc4)o3)CC2)nc1 [Co. No. 5]	153 nM	8.035	solubility [3]: > 454 µM; melting point: 219 °C
O=C(NO)c1cnc(N2CCN(Cc3ccc4ccccc4c3)CC2)nc1 [Co. No. 6]	59.3 nM	8.148	solubility [3]: > 454 µM; melting point: > 260 °C
O=C(NO)c1cnc(N2CCN(CCc3ccc4ccccc4c3)CC2)nc1 [Co. No. 7]	444 nM	7.952	solubility [3]: > 454 µM; melting point: 209 °C
COc1cc2c(=O)n(CC3CCN(c4ncc(C(=O)NO)cn4)CC3)c(C)nc2c(OC)c1OC [Co. No. 8]	372 nM	7.365	–
O=C(NO)c1cnc(N2CCN(Cc3ccc(-c4ccc(CN5CCOCC5)cc4)o3)CC2)nc1 [Co. No. 9]	97.9 nM	7.889	solubility [3]: > 454 µM
O=C(NO)c1cnc(N2CCC(Cn3c(-c4ccccc4)nc4ccccc4c3=O)CC2)nc1 [Co. No. 10]	658 nM	7.427	–
O=C(NO)c1ccc(N2CCN(c3cccc(Cl)c3)CC2)c([N+](=O)[O-])c1 [compound 11]	–	<5	–
O=C(NO)c1ccc(N2CCN(CCCC(c3ccc(F)cc3)c3ccc(F)cc3)CC2)c([N+](=O)[O-])c1 [compound 12]	–	>5	–
O=C(NO)c1cc([N+](=O)[O-])ccc1N1CCN(c2ccccc2Cl)CC1 [compound 13]	–	<5	–
O=C(NO)c1cc([N+](=O)[O-])ccc1N1CCC(Cc2ccccc2)CC1 [compound 14]	–	<5	–
COc1ccccc1N1CCN(c2ccc(C(=O)NO)cc2[N+](=O)[O-])CC1 [compound 15]	–	>5	–
O=C(NO)c1ccc(N2CCN(C3CCCCC3)CC2)c([N+](=O)[O-])c1 [compound 16]	–	5.698	–

Compound	IC50 [2]	Enzyme activity pIC50 [4]	other results
O=C(NO)c1ccc(N2CCN(c3ccc(Cl)c(Cl)c3)CC2)c([N+](=O)[O-])c1 [compound 17]	–	>5	–
O=C(NO)c1ccc(N2CCN(c3ccccn3)CC2)c([N+](=O)[O-])c1 [compound 18]	–	>5	–
O=C(NO)c1ccc(N2CCN(c3cccc(C(F)(F)F)c3)CC2)c([N+](=O)[O-])c1 [compound 19]	–	>5	–
O=C(NO)c1ccc(N2CCN(c3ccc(Cl)cc3)CC2)c([N+](=O)[O-])c1 [compound 20]	–	<5	–
O=C(NO)c1ccc(N2CCN(c3ncccn3)CC2)c([N+](=O)[O-])c1 [compound 21]	–	5	–
O=C(NO)c1ccc(N2CCN(Cc3ccc4c(c3)OCO4)CC2)c([N+](=O)[O-])c1 [compound 22]	–	>5	–
O=C(NO)c1ccc(N2CCN(c3ccccc3F)CC2)c([N+](=O)[O-])c1 [compound 23]	–	>5	–
O=C(NO)c1ccc(N2CCN(Cc3ccccc3)CC2)c([N+](=O)[O-])c1 [compound 24]	–	<5	–
O=C(NO)c1ccc(N2CCN(c3ccc(C(F)(F)F)cn3)CC2)c([N+](=O)[O-])c1 [compound 25]	–	5	–
O=C(NO)c1ccc(N2CCN(c3ccc(C(F)(F)F)cc3)CC2)c([N+](=O)[O-])c1 [compound 26]	–	>5	–
O=C(NO)c1ccc(N2CCC(Cc3ccccc3)CC2)c([N+](=O)[O-])c1 [compound 27]	–	<5	–
O=C(NO)c1ccc(N2CCC(n3c(=O)[nH]c4ccccc43)CC2)c([N+](=O)[O-])c1 [compound 28]	–	>5	–
O=C(NO)c1cccc(CN2CCN(c3cccc4ccccc34)CC2)c1 [compound 49]	–	<5	solubility [3]: 75.8 to 454 µM (≈ 27.4 to 164 µg/mL)
O=C(NO)c1ccc(CN2CCN(c3cccc4ccccc34)CC2)cc1 [compound 50]	–	5.206	solubility [3]: 75.8 to 454 µM (≈ 27.4 to 164 µg/mL)
Cc1nc2ccccc2c(=O)n1CC1CCN(c2ncc(C(=O)NO)cn2)CC1 [compound 51]	1180 nM	7.561	–
Cc1ccc2nc(-c3cc4ccccc4o3)n(CC3CCN(c4ncc(C(=O)NO)cn4)CC3)c(=O)c2c1 [compound 52]	1170 nM	7.235	–
O=C(NO)c1cnc(N2CCC(Cn3c(-c4cccnc4Oc4ccccc4)nc4cccc(F)c4c3=O)CC2)nc1 [compound 53]	–	7.295	–
O=C(NO)c1cnc(N2CCC(Cn3c(C(c4ccccc4)C4CCCC4)nc4cccc(F)c4c3=O)CC2)nc1 (stereo not drawn) [compound 54]	–	6.176	–
CCCO [propanol]	–	–	% metabolism ([1]; 15 min incubation with active microsomes, compound 5 μM): 25%
